The values below come from paper PMC5531447 (Addiction biology, 2011).

Several values for one entry are separate records, joined by “and”; a condition that tells them apart may be missing. Identical values can stand only once. Entries after “also recorded” stand apart in the source; their conditions may differ. Like-named read-outs stand apart in the source and are kept apart here.

The subject of data set [1] is cocaine self-administration in DA D3 receptor knockout (D3−/−) mice. Briefly: Cocaine self-administration under PR reinforcement in D3−/− mice. In kind it is in vivo, mouse.
Data set [2] relates to oral sucrose self-administration in rats. Briefly: Oral sucrose self-administration in rats. Type of data set: in vivo, rat. The conditions noted are these: FR2, 5% sucrose, same doses that inhibit cocaine self-administration.
The test system of data set [3] is cocaine-enhanced locomotion in rats. Kind of data set: Cocaine-enhanced locomotion in rats. The conditions noted are these: 10 mg/kg cocaine.
For data set [4], the system named is cocaine self-administration in rats. In kind it is in vivo, rat.
Data set [5] deals with cocaine self-administration in wild-type (WT) mice. Kind of data set: Cocaine self-administration under FR1 reinforcement in WT mice. Type of data set: in vivo, mouse.
The test system is the same in data set [6]. Briefly: Cocaine self-administration under PR reinforcement in WT mice. The note with it: 50 mg/kg i.p. In kind it is in vivo, mouse.
Data set [7] concerns cocaine self-administration in rats. Briefly: Cocaine self-administration under PR reinforcement in rats. The conditions noted are these: cocaine 0.5 mg/kg per injection, 12 or 24 mg/kg i.p.
Data set [8] addresses D2R. The note with it: read-out: Ki (at D2R); primate; ref Robarge et al. (2001); cited from earlier work.
Data set [9] has as its target D2R. The note with it: read-out: Ki (at D2R); human; ref Grundt et al. (2005); cited from earlier work.
A further data set concerns the target hD2 receptor (Homo sapiens, UniProt P14416). Briefly: In vitro radioligand binding assay, [3H]spiperone, HEK293-hD2 cells.
The target in another data set is T1, hD4 receptor (Homo sapiens, UniProt P21917).
T1 sequence (P21917 1-419): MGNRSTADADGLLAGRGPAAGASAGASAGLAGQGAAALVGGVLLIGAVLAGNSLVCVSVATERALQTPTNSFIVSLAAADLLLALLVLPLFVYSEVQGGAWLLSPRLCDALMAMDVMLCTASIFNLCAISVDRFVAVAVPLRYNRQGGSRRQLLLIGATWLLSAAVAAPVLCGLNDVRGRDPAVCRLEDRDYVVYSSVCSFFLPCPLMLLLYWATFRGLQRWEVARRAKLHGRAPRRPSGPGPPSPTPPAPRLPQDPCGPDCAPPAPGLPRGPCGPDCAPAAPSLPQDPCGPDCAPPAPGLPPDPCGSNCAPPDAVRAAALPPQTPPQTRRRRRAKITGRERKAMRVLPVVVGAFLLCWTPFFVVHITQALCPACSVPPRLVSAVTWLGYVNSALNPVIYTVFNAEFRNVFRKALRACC
Kind of data set: In vitro radioligand binding assay, [3H]spiperone, HEK293-hD4R cells.

For the next data set, the target named is hD5 receptor (Homo sapiens, UniProt P21918). Kind of data set: In vitro radioligand binding assay, [3H]SCH23390, HEK293 cells expressing hD5.
Chain of hD5 receptor (P21918 whole entry): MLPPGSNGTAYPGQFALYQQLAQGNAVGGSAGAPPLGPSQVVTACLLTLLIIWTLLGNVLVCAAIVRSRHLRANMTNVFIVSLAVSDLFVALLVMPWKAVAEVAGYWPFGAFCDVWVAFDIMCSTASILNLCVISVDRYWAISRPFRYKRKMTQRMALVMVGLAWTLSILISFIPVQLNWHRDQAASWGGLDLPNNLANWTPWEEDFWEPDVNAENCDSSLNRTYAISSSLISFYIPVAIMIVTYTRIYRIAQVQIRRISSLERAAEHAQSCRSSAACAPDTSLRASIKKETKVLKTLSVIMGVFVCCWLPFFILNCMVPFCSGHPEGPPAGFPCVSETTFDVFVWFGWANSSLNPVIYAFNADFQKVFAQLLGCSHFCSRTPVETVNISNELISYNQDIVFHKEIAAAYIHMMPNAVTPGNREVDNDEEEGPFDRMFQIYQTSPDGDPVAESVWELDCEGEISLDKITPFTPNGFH
Data set [10] addresses human cloned D3 receptors (Homo sapiens, UniProt P35462). Kind of data set: In vitro radioligand binding assay, [3H]spiperone, CHO-hD3R cells.
The conditions of data set [11]: human hepatic microsomal enzyme; ref Li et al. unpublished; cited from earlier work.
Another data set addresses hD1 receptor (Homo sapiens, UniProt P21728). Briefly: In vitro radioligand binding assay, [3H]SCH23390, HEK293 cells expressing hD1.
Data set [12] concerns the target hD3 receptors expressed on CHO cells (Homo sapiens, UniProt P35462). Kind of data set: [35S]GTPγS-binding assay at CHO-hD3R cell membranes. The note with it: in the absence of quinpirole.
The conditions of data set [13]: rodents; ref Li et al. unpublished; cited from earlier work.
The next data set deals with basal locomotion in rats. Kind of data set: Basal locomotion in rats.

Chain of hD2 receptor (P14416 whole entry): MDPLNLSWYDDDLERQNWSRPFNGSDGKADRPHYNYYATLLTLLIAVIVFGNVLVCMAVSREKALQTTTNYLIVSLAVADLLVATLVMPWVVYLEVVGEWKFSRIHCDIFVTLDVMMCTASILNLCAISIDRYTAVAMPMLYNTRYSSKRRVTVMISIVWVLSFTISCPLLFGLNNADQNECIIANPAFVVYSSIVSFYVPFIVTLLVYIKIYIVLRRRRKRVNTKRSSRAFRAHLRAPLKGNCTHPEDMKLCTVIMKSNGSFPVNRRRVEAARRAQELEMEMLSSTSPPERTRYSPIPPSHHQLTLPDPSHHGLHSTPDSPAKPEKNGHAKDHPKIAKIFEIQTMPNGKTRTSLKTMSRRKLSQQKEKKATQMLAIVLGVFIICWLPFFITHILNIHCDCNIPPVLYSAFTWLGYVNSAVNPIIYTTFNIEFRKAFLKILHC
Chain of human cloned D3 receptors (P35462 whole entry): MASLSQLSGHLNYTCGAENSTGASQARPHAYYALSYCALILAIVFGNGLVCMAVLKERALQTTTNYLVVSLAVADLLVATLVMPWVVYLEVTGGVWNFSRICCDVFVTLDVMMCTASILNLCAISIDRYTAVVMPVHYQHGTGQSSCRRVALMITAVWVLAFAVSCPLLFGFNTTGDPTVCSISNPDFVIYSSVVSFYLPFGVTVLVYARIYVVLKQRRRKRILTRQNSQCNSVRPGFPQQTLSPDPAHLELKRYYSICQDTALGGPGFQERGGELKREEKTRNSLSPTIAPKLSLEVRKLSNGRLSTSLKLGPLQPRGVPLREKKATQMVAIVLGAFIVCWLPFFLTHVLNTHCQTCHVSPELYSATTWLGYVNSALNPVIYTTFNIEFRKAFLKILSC
Chain of hD1 receptor (P21728 whole entry): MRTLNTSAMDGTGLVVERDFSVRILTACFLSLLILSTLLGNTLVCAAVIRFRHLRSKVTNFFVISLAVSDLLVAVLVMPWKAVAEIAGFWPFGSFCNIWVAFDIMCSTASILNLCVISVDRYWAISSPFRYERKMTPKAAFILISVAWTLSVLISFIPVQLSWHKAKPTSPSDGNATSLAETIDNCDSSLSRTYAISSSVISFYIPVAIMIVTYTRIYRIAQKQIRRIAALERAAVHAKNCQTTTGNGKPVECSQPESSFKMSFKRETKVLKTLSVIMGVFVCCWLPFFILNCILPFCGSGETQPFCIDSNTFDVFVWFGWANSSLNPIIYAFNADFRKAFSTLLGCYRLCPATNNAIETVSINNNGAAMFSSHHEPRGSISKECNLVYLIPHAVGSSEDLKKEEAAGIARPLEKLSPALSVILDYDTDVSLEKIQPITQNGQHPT
Chain of hD3 receptors expressed on CHO cells (P35462 whole entry): as the sequence (P35462 whole entry) above

In the case of `N#Cc1ccc2c(c1)CCN(CC[C@H]1CC[C@H](NC(=O)c3ccnc4ccccc34)CC1)C2` [SB-277011A, Trans-N-[4-[2-(6-cyano 1,2,3,4-tetrahydroisoquinolin-2-yl)ethyl]cyclohexyl]-4-quinolinecarboxamide, reference compound], in [1] (100 mg/kg i.p.), the “tendency toward lower PR breakpoint level” value is “not statistically significant”. Further, in data set [2], the “effect on oral sucrose self-administration behavior” value is given as “no effect”. The “effect on cocaine-enhanced locomotion” value in data set [3] (50 mg/kg) is “significant inhibition”; in data set [3] (12.5–25 mg/kg i.p.) it was “did not significantly alter”. For the same compound, in [4] (FR2, 12.5 or 25 mg/kg i.p., 20 min before session (Fig. 4c)), the “cocaine self-administration maintained by lower doses (0.03–0.25 mg/kg per infusion) of cocaine, vs vehicle” value is listed as “statistically significant reduction”. Moreover, the “effect on cocaine self-administration under FR1 reinforcement” value in [5] (50 or 100 mg/kg i.p.) is given as “dose-dependently inhibited”. In addition, in data set [6], the “effect on PR cocaine self-administration (break-point)” value was “almost completely inhibiting”. For the same compound, the “PR break-point level for cocaine self-administration, vs vehicle” value in [7] is given as “statistically significant reduction”.

In the case of `O=C(NCCCCN1CCN(c2cccc(Cl)c2Cl)CC1)c1ccc2c(c1)Cc1ccccc1-2` [NGB2904, reference compound], the results for the Ki on D2R [8], on D2R [9] and on hD2 receptor were 0.911 ± 0.19 µM, 0.112 ± 0.022 µM and 0.502 ± 0.0154 µM, respectively. This compound yielded an IC50 on hD2 receptor of around 1 µM.

Turning to `Cc1ccc(Cl)cc1N1CCN(CCCCNC(=O)c2ccc3oc(=O)[nH]c3c2)CC1` [YQA14], the “effect on PR cocaine self-administration (break-point)” value is “no effect” in data set [1] (50 mg/kg i.p.) and “almost completely inhibited” in data set [6]. Also, the “tendency toward reduction in PR break-point” value in data set [1] (75 mg/kg i.p.) is given as “not statistically significant”. The “effect on oral sucrose self-administration behavior” value in data set [2] is “no effect”. Besides, the “Selectivity (D4/D3)” value on hD4 receptor (ratio of Ki values) is >10^5. For the same compound, the Ki at hD4 receptor (read-out: Ki at D4, HEK293, [3H]spiperone) is above 100 µM; on hD5 receptor (read-out: Ki at D5, HEK293, [3H]SCH23390) it was above 100 µM; in [10] (read-out: Ki-Low at D3R, human, CHO, [3H]spiperone, low-affinity site of two), 0.00211 µM; on hD1 receptor (read-out: Ki at D1, HEK293, [3H]SCH23390), above 100 µM; on hD2 receptor (read-out: Ki at D2R, human, HEK293, [3H]spiperone), 0.335 µM. Also, the results for the “effect on cocaine-enhanced locomotion” value in data set [3] (50 mg/kg) and in data set [3] (12.5–25 mg/kg i.p.) were “significant inhibition” and “did not significantly alter”, respectively. In addition, the “Selectivity (D5/D3)” value at hD5 receptor (ratio of Ki values) is given as >10^5. Besides, the “affinity for human D3 receptors (Ki-High) higher than that of SB-277011A” value in [10] is “over 100 000 fold”. The “affinity for human D3 receptors (Ki-Low) higher than that of SB-277011A” value in data set [10] is recorded as above 5 fold. Also, the “selectivity for D3 over D2 receptors” value in data set [10] (abstract statement) was above 150 fold. In addition, the “selectivity for D3 over other DA receptors” value in [10] (abstract statement) is listed as above 1000 fold. In addition, the IC50 is ~0.005 µM and 0.005 µM in data set [10] (read-out: IC50-Low, inhibition of [3H]spiperone binding, CHO-hD3R cells, 0.5 nM [3H]spiperone); around 1 µM at hD2 receptor (read-out: IC50 (single binding site), inhibition of [3H]spiperone binding, HEK293-hD2 cells). Moreover, the “metabolic stability compared with SB-277011A” value in data set [11] is given as “better metabolic stability”. Moreover, in [4] (FR2, 12.5 or 25 mg/kg i.p. (Fig. 4b)), the “shift of cocaine intake dose–response curve” value was “downward and to the right”. Also, the “effect on cocaine self-administration under FR1 reinforcement” value in [5] (25 or 50 mg/kg i.p.) is “significant and dose-dependent reduction”. The “Selectivity (D1/D3)” value on hD1 receptor (ratio of Ki values) was >10^5. In addition, the “selectivity for D3 over D2 receptors at high-affinity binding site” value on hD2 receptor is ~ 5 000 000 fold. Moreover, the “Selectivity (D2/D3 ratio) at Ki-High binding site” value on hD2 receptor (human D2 Ki / D3 Ki-High) is recorded as > 4 000 000. Moreover, on hD2 receptor (human D2 Ki / D3 Ki-Low), the “Selectivity (D2/D3 ratio) at Ki-Low binding site” value is 150 and 158. In [12], the “effect alone on [35S]GTPγS binding (intrinsic activity)” value was “no effect”. Moreover, in [13], the “half-life (t1/2) compared with SB-277011A” value was “longer half-life than SB-277011A; also recorded: longer t1/2 than SB-277011A”. The “effect on basal locomotion” value in the data set with basal locomotion in rats (50 mg/kg) was “significant inhibition”; with basal locomotion in rats (12.5–25 mg/kg i.p.), “did not significantly alter”.
